Data on two compounds can be found in publication PMC3201719 (ACS medicinal chemistry letters, 2011).

For the test, the target named is BRCT-BRCA1 (Homo sapiens, UniProt P38398). Description: Fluorescence polarization. Type of test: binding.

SMILES strings stand for the structures. Non-standard residues stand in square brackets, D forms with d. Residues, ends and D or L forms follow the SMILES beside them. *: point of attachment. Hydrocinnamoyl = O=C(CCc1ccccc1)*; pS = N[C@@H](COP(=O)(O)O)C(=O)O; X2 = COc1ccc(CC(=O)*)cc1OC

BRCT-BRCA1, sequence (P38398 1646-1859 limits assumed): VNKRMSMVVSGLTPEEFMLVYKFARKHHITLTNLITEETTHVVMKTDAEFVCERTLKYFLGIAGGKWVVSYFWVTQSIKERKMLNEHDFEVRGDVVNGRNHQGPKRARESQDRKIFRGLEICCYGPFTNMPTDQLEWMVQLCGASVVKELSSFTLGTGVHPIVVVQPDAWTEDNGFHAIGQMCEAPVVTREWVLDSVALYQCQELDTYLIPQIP

Consider `CC(C)[C@H](NC(=O)[C@@H]1CCCN1C(=O)[C@H](COP(=O)(O)O)NC(=O)CCc1ccccc1)C(=O)N[C@@H](Cc1ccccc1)C(=O)O` [compound 10] (Hydrocinnamoyl-[pS]PVF-OH; N-terminus assumed), for which, for the setting “compared to parent peptide 4”, the “fold higher activity than parent peptide 4” value is given as ~ 3 fold.
Consider `COc1ccc(CC(=O)N[C@@H](COP(=O)(O)O)C(=O)N2CCC[C@H]2C(=O)N[C@H](C(=O)N[C@@H](Cc2ccccc2)C(=O)O)C(C)C)cc1OC` [compound 13] (X2-[pS]PVF-OH; N-terminus assumed), for which the “fold loss of activity compared to 9” value (compared to mimic 9) is given as ~ 150 fold.
